{"source": "patent US7109174B2", "about": "“Anticonvulsant derivatives useful for preventing the development of type II diabetes mellitus and syndrome X” (Ortho-McNeil Pharmaceutical, Inc., priority 2000, dated 2006)", "test_system": "male mice (ob/ob)", "experiment": "Old male ob/ob mice: topiramate in food for 110 days; body weight, HbA1C, glucose, triglycerides, insulin, skin lesions", "type": "in vivo", "conditions": "for BG / BW / HbA1c / Insulin / Triglycerides: 110 days; for initial total incidence of skin lesions: when the study initiated (before dosing)", "procedure": "Five- to seven-week old male mice (ob/ob) were purchased from The Jackson Laboratory (Bar Harbor, Me.). Upon arrival the mice were quarantined for five days and housed individually in wire mesh cages with 2-inch square “nestlets”. The mice were maintained at an ambient temperature of 21 to 23° C. on a 12 hour-12 hour light-dark schedule and given access to water and powdered chow ad libitum.\nTopiramate was administered orally as a trace constituent in the food (0.143 to 2.54 mg/g). A precise quantity of topiramate was mixed thoroughly into a known amount of powdered lab chow using a mortar and pestle to grind the drug into the chow, after which the contents were placed in a 165 ounce lidded polyethylene tub and blended by shaking and rotating the tub. The lab chow (5002M Certified Diet Meal, manufactured in Brentwood, Mo. by Purina Mills, Inc.) was not less than 20% protein, 4.5% fat, and 64.5% CHO. The quantity of topiramate added to the food was based on the consumption of chow recorded during the previous three- or four-day period. The powdered food was put into stainless steel/aluminum feeders designed to prevent the mice from dispersing, spilling or contaminating the food. Mice that were able to disperse or soil the food were excluded from the study.\nThirty two-week old mice were randomly divided into three groups: (1) a control group in which no topiramate was added to the food, and (2) a group in which topiramate was added to the food in amounts sufficient to give a daily dose of 20 mg/kg for the entire 110-day dosing period, and (3) a group in which topiramate was added to the food in amounts sufficient to give a daily dose of 60 mg/kg for the entire dosing period.\nThe animals in each group were monitored for body weight, food consumption, blood glucose, HbA1C, insulin, triglycerides and physical signs of Type II diabetes mellitus or poor health. Body weight and food consumption were recorded twice-weekly on a Monday/Thursday or Tuesday/Friday schedule 8 to 12 hours into the light portion of the light-dark cycle. Body weight and food consumption were recorded using a scale designed for weights under 200 g. […] The mice were checked for skin lesions, and if present, the degree of severity was noted and recorded. If the general health of a mouse had deteriorated to a degree considered life threatening the mouse was euthanized.\nMice were allowed access to food containing topiramate until a few hours before being sacrificed by decapitation. Blood was collected from the neck wound into a parafilm-lined funnel. The blood was then transferred into beakers containing heparin. Plasma was separated from red blood cells by centrifugation. The plasma was frozen for subsequent analyses. Blood glucose levels, insulin and triglycerides were quantitated in the plasma. Glycated hemoglobin was also measured. The glycated hemoglobin required a 50 μl sample of whole blood, which was removed from the funnel before centrifugation. The plasma samples were then collected without freezing. All samples were packed in ice and shipped on the day blood was collected for overnight delivery to AniLytics, Inc. (200 Girard St., Suite 200, Gaithersburg, Md. 20877). The samples analyzed by AniLytics were assayed using standard procedures established by commercial laboratories that perform blood chemistry analyses. Statistical analysis was performed to determine if the data passed a test for normality (fit a Gaussian distribution). […] The data for a group of TPM-treated mice were compared to the control group.\nFollowing the above described procedure, the effect of topiramate (TPM) on body weight (BW), glycated hemoglobin (HbA1C), blood glucose levels (BG), triglyceride and insulin levels in male ob/ob mice, were determined, with results as listed in Table 11. The abbreviation N represents the number of animals per group."}
{"compound": "CC1(C)O[C@@H]2[C@@H](CO[C@@]3(COS(N)(=O)=O)OC(C)(C)O[C@@H]23)O1", "note": "[Topiramate, 2,3:4,5-bis-O-(1-methylethylidene)-β-D-fructopyranose sulfamate]", "values": [{"measurement": "BG", "setting": "20 mg/kg daily in food, n = 6", "value": "229.2 ± 46.0", "unit": "mg/dL"}, {"measurement": "BW", "setting": "20 mg/kg daily in food, n = 6", "value": "65.6 ± 2.8", "unit": "g"}, {"measurement": "HbA1c", "setting": "20 mg/kg daily in food, n = 6", "value": "4.98 ± 0.6", "unit": "%"}, {"measurement": "Insulin", "setting": "20 mg/kg daily in food, n = 6", "value": "12.2 ± 1.9", "unit": "ng/mL"}, {"measurement": "Triglycerides", "setting": "20 mg/kg daily in food, n = 6", "value": "104 ± 6.4", "unit": "mg/dL"}, {"measurement": "initial total incidence of skin lesions", "setting": "20 mg/kg group", "value": 38, "unit": "%"}, {"measurement": "mice died or had to be euthanized", "setting": "20 mg/kg, first 60 days of dosing", "value": "four"}, {"measurement": "BW", "setting": "60 mg/kg daily in food, n = 7", "value": "67.5 ± 1.6", "unit": "g"}, {"measurement": "HbA1c", "setting": "60 mg/kg daily in food, n = 7", "value": "3.56 ± 0.4", "unit": "%"}, {"measurement": "Insulin", "setting": "60 mg/kg daily in food, n = 7", "value": "11.4 ± 2.1", "unit": "ng/mL"}, {"measurement": "Triglycerides", "setting": "60 mg/kg daily in food, n = 7", "value": "88 ± 3.2", "unit": "mg/dL"}, {"measurement": "BG", "setting": "60 mg/kg daily in food, n = 7, P < 0.05", "value": "144.3 ± 20.0", "unit": "mg/dL"}, {"measurement": "initial total incidence of skin lesions", "setting": "60 mg/kg group", "value": 47, "unit": "%"}, {"measurement": "mice died", "setting": "60 mg/kg, first 60 days of dosing", "value": "Two"}, {"measurement": "total incidence of lesions versus control", "setting": "60 mg/kg/day, dosing period between 62 and 110 days", "value": "lower than in the control group"}]}
